Assay [1] addresses T1, Sodium/calcium exchanger 1 (Homo sapiens, UniProt P32418). The assay can be described thus: Reverse Mode Assay: The assay is based on the monitoring of intracellular Ca2+concentrations using the calcium-sensitive dye Fluo-4. CHO cells expressing NCX1 were loaded with the dye by means of the acetoxymethyl ester Fluo-4 AM (Invitrogen, F14202), which is cleaved intracellularly by esterase activity to yield the charged species of free Fluo-4. After an preincubation period with the test compound, Gramicidine (Sigma, G5002) was added. Gramicidine is an ionophor for Na+ions mediating an increase of intracellular Na+ions. Consequently, intracellular Na+ions are exchanged against extracellular Ca2+ions (Ca2+influx, reverse mode). The intracellular elevation of Ca2+ ions was detected by measuring the fluorescence of Fluo-4 at a wavelength of 520 nm by a FLIPR device.Briefly, for the reverse mode transport assay 18000 cells per well were seeded into a 96 well microplate (Corning COSTAR 3904) and incubated overnight in culture medium (1x Nut Mix F12 (Ham) (Gibco, 21765-029); 10% (v/v) fetal calf serum. Format: cell-based.

For assay [2], the target named is T1, Sodium/calcium exchanger 1. The experiment in a line: Forward Mode Assay: The assay is based on the monitoring of intracellular Ca2+concentrations using the PBX Calcium Assay Kit from BD (Becton, Dickinson and Company) with calcium indicator dye 51-9000177BKa (BD, 640177), CHO cells expressing NCX1 were loaded with the dye, and after a preincubation period with the test compound, lonomycin (Calbiochem, 407950) was added. Ionomycin is an ionophor for Ca2+ions mediating an increase of intracellular Ca2+ions. Consequently, intracellular Ca2+ions are exchanged against extracellular Na+ions (Ca2+efflux, forward mode). The decrease of intracellular Ca2+ions was detected by measuring the fluorescence of the calcium indicator dye at a wavelength of 520 nm by a FLIPR device.Briefly, similarly as for the reverse mode, for the forward mode transport assay 18000 cells per well were seeded into a 96 well microplate (Corning COSTAR 3904) and incubated overnight in culture medium (cf. above). A total volume of 100 ul medium per well was used. The assay is classed as cell-based.

For two molecules, IC50 results are on record in ChEMBL document CHEMBL3638669, “Substituted 2-(chroman-6-yloxy)-thiazoles and their use as pharmaceuticals” (2014).

What is called IC50 is the concentration that inhibits the measured activity by half.

T1 sequence (P32418 36-973 limits assumed): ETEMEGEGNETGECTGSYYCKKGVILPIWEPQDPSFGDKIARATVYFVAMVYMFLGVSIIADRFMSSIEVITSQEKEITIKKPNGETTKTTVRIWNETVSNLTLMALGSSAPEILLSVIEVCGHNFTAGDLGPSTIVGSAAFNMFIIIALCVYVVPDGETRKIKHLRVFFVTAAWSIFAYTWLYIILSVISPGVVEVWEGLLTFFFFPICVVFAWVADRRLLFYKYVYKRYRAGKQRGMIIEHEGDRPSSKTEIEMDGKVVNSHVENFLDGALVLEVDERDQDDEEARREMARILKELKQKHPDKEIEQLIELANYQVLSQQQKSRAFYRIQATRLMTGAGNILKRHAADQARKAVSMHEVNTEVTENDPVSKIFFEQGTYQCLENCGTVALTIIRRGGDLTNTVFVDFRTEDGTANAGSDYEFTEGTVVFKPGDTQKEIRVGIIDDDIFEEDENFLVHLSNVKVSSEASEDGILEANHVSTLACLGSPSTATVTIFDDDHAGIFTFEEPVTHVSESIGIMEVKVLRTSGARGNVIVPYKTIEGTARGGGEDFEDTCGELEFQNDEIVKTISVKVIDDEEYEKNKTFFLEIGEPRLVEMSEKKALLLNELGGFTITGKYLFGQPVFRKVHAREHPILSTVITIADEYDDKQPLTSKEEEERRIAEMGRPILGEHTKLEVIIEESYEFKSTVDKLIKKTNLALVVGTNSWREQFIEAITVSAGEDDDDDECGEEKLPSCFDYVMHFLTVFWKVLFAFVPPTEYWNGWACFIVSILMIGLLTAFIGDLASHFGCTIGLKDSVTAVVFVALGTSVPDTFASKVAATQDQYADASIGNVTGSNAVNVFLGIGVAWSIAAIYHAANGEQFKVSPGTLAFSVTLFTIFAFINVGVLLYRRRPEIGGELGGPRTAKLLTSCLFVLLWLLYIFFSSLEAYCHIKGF

Regarding `NCCCNC(=O)c1cnc(Oc2ccc3c(c2)CC[C@@H](c2ccccc2)O3)s1`, in assay [1], the IC50 turned out to be 0.3 µM.

Consider `Cc1ccccc1C1CCc2cc(Oc3ncc(C(=O)NCc4ccnc(Cl)c4)s3)ccc2O1` (configuration not stated), for which the IC50 in assay [2] was found to be 1.9 µM.
